According to patent US7030110B2, “Cyclic oxyguanidine pyrazinones as protease inhibitors” (Ortho-McNeil Pharmaceuticals, Inc., priority 2000, dated 2006):
Structures can show the parent of a compound that is named as a salt.

Target: T1, human α-thrombin (Homo sapiens, UniProt P00734)
T1 construct: Human α-thrombin, human factor Xa and human plasmin were obtained from Enzyme Research Laboratories; purchased Enzyme Research Laboratories (South Bend, Indiana)
Assay: In vitro inhibition of purified thrombin, Ki determination (p-nitroanilide substrate hydrolysis)
Type: biochemical
Conditions: purified human α-thrombin 0.5 nM; substrate N-succinyl-Ala-Ala-Pro-Arg-p-nitroanilide; 50 mM HEPES, 200 mM NaCl, pH 7.5; 37° C.
Description: Reagents: All buffer salts were obtained from Sigma Chemical Company (St. Louis, Mo.), and were of the highest purity available. The enzyme substrates, N-benzoyl-Phe-Val-Arg-p-nitroanilide (Sigma B7632), N-benzoyl-Ile-Glu-Gly-Arg-p-nitroanilide hydrochloride (Sigma B2291), N-p-Tosyl-Gly-Pro-Lys-p-nitroanilide (Sigma T6140), N-succinyl-Ala-Ala-Pro-Phe-p-nitroanilide (Sigma S7388) and N-CBZ-Val-Gly-Arg-p-nitroanilide (Sigma C7271) were obtained from Sigma. N-succinyl-Ala-Ala-Pro-Arg-p-nitroanilide (BACHEM L-1720) and N-succinyl-Ala-Ala-Pro-Val-p-nitroanilide (BACHEM L-1770) were obtained from BACHEM (King of Prussia, Pa.). […]
Ki Determinations: All assays are based on the ability of the test compound to inhibit the enzyme catalyzed hydrolysis of a peptide p-nitroanilide substrate. […] In general, substrate concentrations are lower than the experimentally determined value for Km. […]
In a typical K1 determination, into each well of a 96 well plate is pipetted […] of substrate solution, […] of test compound solution, and the plate allowed to thermally equilibrate at 37° C. in a Molecular Devices plate reader for >15 minutes. Reactions were initiated by the addition of a […] aliquot of enzyme and the absorbance increase at 405 nm is recorded for 15 minutes. […] The data are fit to a linear regression, and the value of the slope of the line calculated. […]

## Cc1ccc(CCNc2ncc(C)n(CC(=O)NC3CCN(C(=N)N)OC3)c2=O)cc1 (centres unmarked) [Example 1, N-(2-Carbamimidoyl-[1,2]oxazinan-5-yl)-2-[6-methyl-2-oxo-3-(2-p-tolylethylamino)-2H-pyrazin-1-yl]-acetamide trifluoroacetate]
  Ki: 0.6 to 1.3 nM

## Cc1cnc(NCC(F)(F)c2ccccc2)c(=O)n1CC(=O)NCC1CNC(=N)NO1 (centres unmarked) [Example 2, 2-[3-(2,2-Difluoro-2-phenylethylamino)-6-methyl-2-oxo-2H-pyrazin-1-yl]-N-(3-imino-[1,2,4]oxadiazinan-6-ylmethyl)-acetamide Trifluoroacetate]
  Ki: 5 nM
